{
  "source": "patent US8981111B2",
  "about": "(priority 2008, dated 2015)",
  "data": [
    {"experiment": "log P (HPLC/MS data of the preparation examples)", "conditions": "method [b]: LC-MS at pH 2.7, 0.1% formic acid in water / acetonitrile, linear gradient 10% to 95% acetonitrile", "values": [
      {"smiles": "CC(C)CC(=O)Nc1cccc(CON=C(c2ccccc2)c2nn(C)c(=O)n2C)n1", "note": "[Example 148]", "log p": "2.82^[b]"},
      {"smiles": "Cn1nc(C(=NOCc2cccc(NC(=O)Cc3ccccc3)n2)c2ccccc2)n(C)c1=O", "note": "[Example 149]", "log p": "2.94^[b]"},
      {"smiles": "Cn1nc(C(=NOCc2cccc(NC(=O)CCc3ccccc3)n2)c2ccccc2)n(C)c1=O", "note": "[Example 150]", "log p": "3.19^[b]"},
      {"smiles": "Cn1nc(C(=NOCc2cccc(NC(=O)CC(F)(F)F)n2)c2ccccc2)n(C)c1=O", "note": "[Example 151]", "log p": "2.66^[b]"},
      {"smiles": "Cn1nc(C(=NOCc2cccc(NC(=O)c3cccs3)n2)c2ccccc2)n(C)c1=O", "note": "[Example 152]", "log p": "2.82^[b]"},
      {"smiles": "Cn1nc(C(=NOCc2cccc(NC(=O)CCC3CCCC3)n2)c2ccccc2)n(C)c1=O", "note": "[Example 153]", "log p": "3.71^[b]"},
      {"smiles": "Cn1ccnc1C(=NOCc1nccc(NC(=O)C2CC2)n1)c1ccccc1", "note": "[Example 154]", "log p": "1.5^[b]"},
      {"smiles": "Cn1ccnc1C(=NOCc1nccc(NC(=O)Cc2ccccc2)n1)c1ccccc1", "note": "[Example 155]", "log p": "2.01^[b]"},
      {"smiles": "Cn1cnnc1C(=NOCc1cccc(N)n1)c1ccccc1", "note": "[Example 156]", "log p": "0.88^[b]"},
      {"smiles": "CCCCCOC(=O)Nc1cccc(CON=C(c2ccccc2)c2nncn2C)n1", "note": "[Example 157]", "log p": "3.29^[b]"},
      {"smiles": "Cn1cnnc1C(=NOCc1cccc(NC(=O)Cc2ccccc2)n1)c1ccccc1", "note": "[Example 158]", "log p": "2.56^[b]"},
      {"smiles": "CC(C)COC(=O)Nc1cccc(CON=C(c2ccccc2)c2nncn2C)n1", "note": "[Example 159]", "log p": "2.88^[b]"},
      {"smiles": "Cn1cnnc1C(=NOCc1cccc(NC(=O)CC(F)(F)F)n1)c1ccccc1", "note": "[Example 160]", "log p": "2.28^[b]"},
      {"smiles": "Cn1ncnc1C(=NOCc1cccc(CN2C(=O)c3ccccc3C2=O)n1)c1ccccc1", "note": "[Example 161]", "log p": "2.9^[b]"},
      {"smiles": "Cn1ncnc1C(=NOCc1cccc(CN)n1)c1ccccc1", "note": "[Example 162]", "log p": "0.99^[b]"},
      {"smiles": "Cc1cccc(C(=NOCc2cccc(N)n2)c2ncnn2C)c1", "note": "[Example 164]", "log p": "1.08^[b]"},
      {"smiles": "Cn1nncc1C(=NOCc1csc(N)n1)c1ccccc1", "note": "[Example 165]", "log p": "1.29^[b]"},
      {"smiles": "Cn1ccnc1C(=NOCc1nccc(NC(=O)C(C(=O)Cc2ccccc2)c2ccccc2)n1)c1ccccc1", "note": "(centres unmarked) [Example 166]", "log p": "2.59^[b]"},
      {"smiles": "Cn1cnnc1C(=NOCc1cccc(NC(=O)C(C)(C)C)n1)c1ccccc1", "note": "[Example 167]", "log p": "2.44^[b]"},
      {"smiles": "Cc1nc(C(=NOCc2cccc(NC(=O)C(C)(C)C)n2)c2ccccc2)cs1", "note": "[Example 172]", "log p": "3.56^[b]"},
      {"smiles": "Cn1nc(C(F)(F)F)nc1C(=NOCc1cccc(NC(=O)Cc2ccccc2)n1)c1ccccc1", "note": "[Example 175]", "log p": "4.24^[b]"},
      {"smiles": "Cn1nc(C(F)(F)F)nc1C(=NOCc1cccc(NC(=O)CCc2ccccc2)n1)c1ccccc1", "note": "[Example 176]", "log p": "4.49^[b]"},
      {"smiles": "CC(C)CC(=O)Nc1cccc(CON=C(c2ccccc2)c2nc(C(F)(F)F)nn2C)n1", "note": "[Example 177]", "log p": "4.24^[b]"},
      {"smiles": "Cn1nc(C(F)(F)F)nc1C(=NOCc1cccc(NC(=O)C(C)(C)C)n1)c1ccccc1", "note": "[Example 178]", "log p": "4.31^[b]"},
      {"smiles": "CCCCCOC(=O)Nc1cccc(CON=C(c2ccccc2)c2nc(C(F)(F)F)nn2C)n1", "note": "[Example 179]", "log p": "5.2^[b]"},
      {"smiles": "CC(C)COC(=O)Nc1cccc(CON=C(c2ccccc2)c2nc(C(F)(F)F)nn2C)n1", "note": "[Example 180]", "log p": "4.78^[b]"},
      {"smiles": "Cn1nc(C(F)(F)F)nc1C(=NOCc1cccc(N)n1)c1ccccc1", "note": "[Example 181]", "log p": "1.97^[b]"},
      {"smiles": "CCCCCC(=O)Nc1cccc(CON=C(c2ccccc2)c2nc(C(F)(F)F)nn2C)n1", "note": "[Example 182]", "log p": "4.67^[b]"},
      {"smiles": "Cn1nc(C(F)(F)F)nc1C(=NOCc1cccc(N2C(=O)c3ccccc3C2=O)n1)c1ccccc1", "note": "[Example 183]", "log p": "3.99^[b]"},
      {"smiles": "Cn1nc(C(F)(F)F)nc1C(=NOCc1cccc(NC(=O)C2CCCC2)n1)c1ccccc1", "note": "[Example 184]", "log p": "4.41^[b]"},
      {"smiles": "CC(=O)OCCCCOC(=O)Nc1cccc(CON=C(c2ccccc2)c2nc(C(F)(F)F)nn2C)n1", "note": "[Example 185]", "log p": "4.11^[b]"},
      {"smiles": "Cc1cc(C(F)(F)F)nn1CC(=O)Nc1cccc(CON=C(c2ccccc2)c2nc(C(F)(F)F)nn2C)n1", "note": "[Example 186]", "log p": "4.31^[b]"},
      {"smiles": "CCCCCOC(=O)Nc1cccc(CON=C(c2ccccc2)c2csc(C)n2)n1", "note": "[Example 187]", "log p": "4.51^[b]"},
      {"smiles": "Cn1c(C(=NOCc2cccc(N3C(=O)c4ccccc4C3=O)n2)c2ccccc2)nnc1C(F)(F)F", "note": "[Example 192]", "log p": "3.31^[b]"},
      {"smiles": "Cc1ncc(C(=NOCc2cccc(N3C(=O)c4ccccc4C3=O)n2)c2ccccc2)n1C", "note": "[Example 194]", "log p": "1.84^[b]"},
      {"smiles": "CCCCCOC(=O)Nc1cccc(CON=C(c2ccccc2)c2csc(C)n2)n1", "note": "[Example 195]", "log p": "4.92^[b]"},
      {"smiles": "CCCCCC(=O)Nc1cccc(CON=C(c2ccccc2)c2nnc(C(F)(F)F)n2C)n1", "note": "[Example 196]", "log p": "3.94^[b]"},
      {"smiles": "CCCCCOC(=O)Nc1cccc(CON=C(c2ccccc2)c2nnc(C(F)(F)F)n2C)n1", "note": "[Example 197]", "log p": "4.49^[b]"},
      {"smiles": "Cn1c(C(=NOCc2cccc(NC(=O)C(C)(C)C)n2)c2ccccc2)nnc1C(F)(F)F", "note": "[Example 198]", "log p": "3.58^[b]"},
      {"smiles": "Cn1c(C(=NOCc2cccc(NC(=O)Cc3ccccc3)n2)c2ccccc2)nnc1C(F)(F)F", "note": "[Example 200]", "log p": "3.6^[b]"},
      {"smiles": "Cn1c(C(=NOCc2cccc(NC(=O)CCc3ccccc3)n2)c2ccccc2)nnc1C(F)(F)F", "note": "[Example 201]", "log p": "3.85^[b]"},
      {"smiles": "Cn1c(C(=NOCc2cccc(NC(=O)C3CCCC3)n2)c2ccccc2)nnc1C(F)(F)F", "note": "[Example 202]", "log p": "3.69^[b]"},
      {"smiles": "CC(C)COC(=O)Nc1cccc(CON=C(c2ccccc2)c2nnc(C(F)(F)F)n2C)n1", "note": "[Example 203]", "log p": "4.06^[b]"},
      {"smiles": "Cn1c(C(=NOCc2cccc(NC(=O)c3cccs3)n2)c2ccccc2)nnc1C(F)(F)F", "note": "[Example 204]", "log p": "3.48^[b]"},
      {"smiles": "CCOc1ccc(C(=O)Nc2cccc(CON=C(c3ccccc3)c3nnc(C(F)(F)F)n3C)n2)cc1", "note": "[Example 205]", "log p": "3.94^[b]"},
      {"smiles": "CSCCC(=O)Nc1cccc(CON=C(c2ccccc2)c2nnc(C(F)(F)F)n2C)n1", "note": "[Example 206]", "log p": "3.15^[b]"},
      {"smiles": "CCCCC(=O)Nc1cccc(CON=C(c2ccccc2)c2nnc(C(F)(F)F)n2C)n1", "note": "[Example 207]", "log p": "3.58^[b]"},
      {"smiles": "Cn1ncnc1C(=NOCc1cccc(N2CCCCC2=O)n1)c1ccccc1", "note": "[Example 208]", "log p": "2.18^[b]"},
      {"smiles": "Cc1ncc(C(=NOCc2cccc(N)n2)c2ccccc2)n1C", "note": "[Example 209]", "log p": "0.56^[b]"},
      {"smiles": "CCCCCOC(=O)Nc1cccc(CON=C(c2ccccc2)c2cnc(C)n2C)n1", "note": "[Example 211]", "log p": "3.13^[b]"},
      {"smiles": "CCCCCC(=O)Nc1cccc(CON=C(c2ccccc2)c2cnc(C)n2C)n1", "note": "[Example 212]", "log p": "2.08^[b]"},
      {"smiles": "Cc1nnsc1C(=NOCc1cccc(N2C(=O)c3ccccc3C2=O)n1)c1ccccc1", "note": "[Example 214]", "log p": "3.69^[b]"},
      {"smiles": "Cc1nnsc1C(=NOCc1cccc(N)n1)c1ccccc1", "note": "[Example 215]", "log p": "1.63^[b]"},
      {"smiles": "CCCCCC(=O)Nc1cccc(CON=C(c2ccccc2)c2snnc2C)n1", "note": "[Example 216]", "log p": "4.46^[b]"},
      {"smiles": "CCCCCOC(=O)Nc1cccc(CON=C(c2ccccc2)c2snnc2C)n1", "note": "[Example 217]", "log p": "5.11^[b]"},
      {"smiles": "Cc1nnsc1C(=NOCc1cccc(NC(=O)CC(C)C)n1)c1ccccc1", "note": "[Example 218]", "log p": "3.96^[b]"},
      {"smiles": "Cc1nnsc1C(=NOCc1cccc(NC(=O)Cc2ccccc2)n1)c1ccccc1", "note": "[Example 219]", "log p": "4.04^[b]"},
      {"smiles": "Cc1nnsc1C(=NOCc1cccc(NC(=O)CCc2ccccc2)n1)c1ccccc1", "note": "[Example 220]", "log p": "4.31^[b]"},
      {"smiles": "Cc1nnsc1C(=NOCc1cccc(NC(=O)CCC2CCCC2)n1)c1ccccc1", "note": "[Example 221]", "log p": "5^[b]"},
      {"smiles": "Cc1nnsc1C(=NOCc1cccc(NC(=O)OCC(C)C)n1)c1ccccc1", "note": "[Example 222]", "log p": "4.65^[b]"},
      {"smiles": "Cc1nnsc1C(=NOCc1cccc(NC(=O)CCC2CCCCC2)n1)c1ccccc1", "note": "[Example 223]", "log p": "5.41^[b]"},
      {"smiles": "CCCCC(=O)Nc1cccc(CON=C(c2ccccc2)c2snnc2C)n1", "note": "[Example 224]", "log p": "4.04^[b]"},
      {"smiles": "Cn1ccnc1C(=NOCc1cccc(N2C(=O)c3ccccc3C2=O)n1)c1cccc(F)c1", "note": "[Example 227]", "log p": "2.13^[b]"},
      {"smiles": "Cn1cnnc1C(=NOCc1cccc(C#CCC2CCCC2)n1)c1ccccc1", "note": "[Example 230]", "log p": "3.76^[b]"},
      {"smiles": "Cn1cnnc1C(=NOCc1cccc(C#CCC2CCCCC2)n1)c1ccccc1", "note": "[Example 231]", "log p": "4.14^[b]"},
      {"smiles": "Cn1cnnc1C(=NOCc1cccc(C#Cc2ccccc2)n1)c1ccccc1", "note": "[Example 232]", "log p": "3.15^[b]"},
      {"smiles": "Cn1ccnc1C(=NOCc1cccc(N)n1)c1cccc(F)c1", "note": "[Example 233]", "log p": "0.54^[b]"},
      {"smiles": "COc1ccccc1CC(=O)Nc1cccc(CON=C(c2ccccc2)c2ncnn2C)n1", "note": "[Example 234]", "log p": "3.17^[b]"},
      {"smiles": "Cn1ncnc1C(=NOCc1cccc(NC(=O)Cc2cccc(F)c2)n1)c1ccccc1", "note": "[Example 235]", "log p": "3.15^[b]"},
      {"smiles": "COCCC(=O)Nc1cccc(CON=C(c2ccccc2)c2ncnn2C)n1", "note": "[Example 237]", "log p": "2.17^[b]"},
      {"smiles": "Cn1ncnc1C(=NOCc1cccc(NC(=O)CCc2cccc(Cl)c2)n1)c1ccccc1", "note": "[Example 238]", "log p": "3.73^[b]"},
      {"smiles": "Cn1ncnc1C(=NOCc1cccc(NC(=O)CCc2cccc(C(F)(F)F)c2)n1)c1ccccc1", "note": "[Example 239]", "log p": "3.87^[b]"},
      {"smiles": "CC(C(=O)Nc1cccc(CON=C(c2ccccc2)c2ncnn2C)n1)c1ccccc1", "note": "(centres unmarked) [Example 240]", "log p": "3.42^[b]"},
      {"smiles": "Cn1ncnc1C(=NOCc1cccc(NC(=O)Cc2cc(F)cc(F)c2)n1)c1ccccc1", "note": "[Example 241]", "log p": "3.33^[b]"},
      {"smiles": "Cn1ncnc1C(=NOCc1cccc(NC(=O)Cc2ccc(Cl)cc2)n1)c1ccccc1", "note": "[Example 242]", "log p": "3.46^[b]"}
    ]},
    {"experiment": "log P (HPLC/MS data of the preparation examples)", "conditions": "reversed phase HPLC column, pH 2.7", "values": [
      {"smiles": "Cn1cnnc1C(=NOCc1cccc(Br)n1)c1ccccc1", "note": "[Example 228, N-[(6-bromopyridin-2-yl)methoxy]-1-(4-methyl-4H-1,2,4-triazol-3-yl)-1-phenylmethanimine]", "chromatographic logP": 2.28},
      {"smiles": "Cn1cnnc1C(=NOCc1cccc(C#CC2CC2)n1)c1ccccc1", "note": "[Example 229, N-{[6-(cyclopropylethynyl)pyridin-2-yl]methoxy}-1-(4-methyl-4H-1,2,4-triazol-3-yl)-1-phenylmethanimine]", "chromatographic logP": 2.56}
    ]}
  ]
}
